Source: PubChem BioAssay (NCI)
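Method: 48-hour compound exposure of cells in 96-well plates, five concentrations, linear interpolation of endpoints. At the GI50, growth is halved. The concentration for full growth arrest is given as TGI.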

Columns and labels:
Assay in all cases: growth of human tumour cells (NCI), 48 h
[1] = system: MOLT-4 leukemia
[2] = system: OVCAR-3 ovarian
[3] = system: CCRF-CEM leukemia
[4] = system: SF-295 CNS
[5] = system: U251 CNS
[6] = system: SF-539 CNS
[7] = system: MALME-3M melanoma
[8] = system: UACC-257 melanoma
[9] = system: IGROV1 ovarian
[10] = system: OVCAR-5 ovarian
[11] = system: LOX IMVI melanoma
[12] = system: NCI-H460 lung
[13] = system: HOP-92 NSCLC
[14] = system: A498 renal
[15] = system: SW-620 colon
[16] = system: SK-MEL-5 melanoma
[17] = system: RPMI-8226 leukemia
[18] = system: TK-10 renal
[19] = system: HT29 colon
[20] = system: HS 578T breast
[21] = system: UO-31 renal
[22] = system: OVCAR-4 ovarian
[23] = system: HCT-15 colon
[24] = system: PC-3 prostate
[25] = system: A549 NSCLC
[26] = system: HCC-2998 colon
[27] = system: ACHN renal
[28] = system: MCF7 breast
[29] = system: NCI-H226 lung
[30] = system: DU-145 prostate
[31] = system: M14 melanoma
[32] = system: COLO 205 colon
[33] = system: RXF 393 renal
[34] = system: BT-549 breast
[35] = system: OVCAR-8 ovarian
[36] = system: 786-0 renal
[37] = system: K-562 leukemia
[38] = system: SK-MEL-2 melanoma
[39] = system: SF-268 CNS
[40] = system: CAKI-1 renal
[41] = system: HCT-116 colon
[42] = system: KM12 colon
[43] = system: NCI-H522 lung
[44] = system: HOP-62 NSCLC
[45] = system: HL-60(TB) leukemia
[46] = system: SN12C renal
[47] = system: SR leukemia
[48] = system: SK-OV-3 ovarian
[49] = system: SNB-75 CNS
[50] = system: NCI-H23 lung
[51] = system: MDA-MB-435
[52] = system: NCI/ADR-RES ovarian
[53] = system: SK-MEL-28 melanoma

CN(C)CCCC(=O)Nc1ccc(Cn2nnc3c2C(=O)c2nnn(Cc4ccc(NC(=O)CCCN(C)C)cc4)c2C3=O)cc1
GI50 [1]: 1.96 µM
TGI [1]: 5.2 µM
GI50 [2]: 2.38 µM
TGI [2]: 6.02 µM
GI50 [3]: 2.04 µM
TGI [3]: 6.35 µM
GI50 [4]: 14.4 µM
TGI [4]: 31.5 µM
GI50 [5]: 2.69 µM
TGI [5]: 6.62 µM
GI50 [6]: 2.34 µM
TGI [6]: 5.6 µM
GI50 [7]: 1.39 µM
TGI [7]: 2.94 µM
GI50 [8]: 3.25 µM
TGI [8]: 11.6 µM
GI50 [9]: 2.32 µM
TGI [9]: 5.74 µM
GI50 [10]: 19 µM
TGI [10]: 51.4 µM
GI50 [11]: 2.22 µM
TGI [11]: 5.62 µM
GI50 [12]: 2.82 µM
TGI [12]: 10.8 µM
GI50 [13]: 2.51 µM
TGI [13]: 5.82 µM
GI50 [14]: 16 µM
TGI [14]: 45.3 µM
GI50 [15]: 3.43 µM
TGI [15]: 12.2 µM
GI50 [16]: 1.48 µM
TGI [16]: 2.84 µM
GI50 [17]: 3.17 µM
TGI [17]: 15.9 µM
GI50 [18]: > 100 µM
TGI [18]: > 100 µM
GI50 [19]: 3.22 µM
TGI [19]: 7.87 µM
GI50 [20]: 2.93 µM
TGI [20]: 7.68 µM
GI50 [21]: > 100 µM
TGI [21]: > 100 µM
GI50 [22]: 1.34 µM
TGI [22]: 2.64 µM
GI50 [23]: 56.8 µM
TGI [23]: > 100 µM
GI50 [24]: 4.75 µM
TGI [24]: 43.4 µM
GI50 [25]: 16.8 µM
TGI [25]: 39.2 µM
GI50 [26]: 2.43 µM
TGI [26]: 5.22 µM
GI50 [27]: 38.9 µM
TGI [27]: > 100 µM
GI50 [28]: 1.45 µM
TGI [28]: 3.52 µM
GI50 [29]: 16.5 µM
TGI [29]: 42.2 µM
GI50 [30]: 3.48 µM
TGI [30]: 10.6 µM
GI50 [31]: 5.97 µM
TGI [31]: 24.3 µM
GI50 [32]: 1.79 µM
TGI [32]: 3.52 µM
GI50 [33]: 5 µM
TGI [33]: 21.6 µM
GI50 [34]: 13.8 µM
TGI [34]: 29.8 µM
GI50 [35]: 5.25 µM
TGI [35]: 29.3 µM
GI50 [36]: 18.2 µM
TGI [36]: 44.2 µM
GI50 [37]: 5.45 µM
TGI [37]: 55.9 µM
GI50 [38]: 2.17 µM
TGI [38]: 4.64 µM
GI50 [39]: 3.29 µM
TGI [39]: 12.8 µM
GI50 [40]: > 100 µM
TGI [40]: > 100 µM
GI50 [41]: 3.03 µM
TGI [41]: 11.6 µM
GI50 [42]: 7.54 µM
TGI [42]: 22.7 µM
GI50 [43]: 2.15 µM
TGI [43]: 5.06 µM
GI50 [44]: 17.2 µM
TGI [44]: 32.8 µM
GI50 [45]: 1.75 µM
TGI [45]: 5.17 µM
GI50 [46]: 1.96 µM
TGI [46]: 4 µM
GI50 [47]: 3.36 µM
TGI [47]: 61.4 µM
GI50 [48]: 20.9 µM
TGI [48]: 49 µM
GI50 [49]: 1.69 µM
TGI [49]: 3.06 µM
GI50 [50]: 2.13 µM
TGI [50]: 5.01 µM
GI50 [51]: 1.82 µM
TGI [51]: 3.26 µM
GI50 [52]: > 100 µM
TGI [52]: > 100 µM
GI50 [53]: 4.55 µM
TGI [53]: 20.3 µM
